Residues, ends and D or L forms follow the SMILES beside them.
Key:
ACE = biological target: T1, ACE (Homo sapiens, UniProt P12821); test: Angiotensin-converting-enzyme inhibitory test, FAPGG substrate; type: biochemical; conditions: substrate N-[3-2(furyl)acryloyl]L-phenylalanylglycylglycine; read-out: IC50 for the inhibition of ACE
T1 construct: purchased
Protocol: Angiotensin-Converting-Enzyme Inhibitory Test
This procedure is a rapid spectrophotometric method utilizing the synthetic tripeptide substrate N-[3-(2-furyl)acryloil]-L-phenylalanylglycylglycine (FAPGG). Km-value: 0.3 mM.
FAPGG was hydrolysed to furylacryloylphenylalanine (FAP) and glycylgylcine.
The ACE reagent and the ACE Calibrator were reconstituted according to the manufacturer's recommendations.
The assay was performed in quartz cuvets. 0.05 ml ACE Reagent Solution, 0.05 ml casein hydrolysate and 0.05 ml ACE calibrator were mixed and incubated at 37° C. for 10 minutes.
The absorbance at 340 nm was measured as a function of time.
The ACE activity in the sample was determined by comparing the sample reaction rate to that obtained with the ACE calibrator. The results are expressed as percentage with respect to the control.

MMP-7 = biological target: T2, MMP-7 (Homo sapiens, UniProt P09237); test: Matrix metalloproteinase inhibitory test, DQ-gelatin substrate; type: biochemical; conditions: flourescein conjugated gelatin; read-out: IC50 for the inhibition of MMP-7
T2 sequence (P09237 95-267): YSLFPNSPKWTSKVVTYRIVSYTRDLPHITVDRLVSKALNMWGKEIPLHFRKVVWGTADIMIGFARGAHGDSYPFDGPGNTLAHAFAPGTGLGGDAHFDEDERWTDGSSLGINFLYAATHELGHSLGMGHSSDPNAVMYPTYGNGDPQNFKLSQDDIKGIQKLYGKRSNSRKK
Protocol: (§1) Matrix Metalloproteinase Inhibitory Test
(§2) The assay was performed in microtiter plates. In each single well 1 μl enzyme, the inhibitor at the desired concentration and finally 5 μl substrate were added to PBS buffer (pH 7.0-7.5), final volume: 200 μl. The reaction mixture was incubated at 37° C. for 2 hours. The increase in fluorescence was continuously recorded, exciting at 485 nm and reading the emission at 530 nm, with a gain of 40.
(§3) Inhibitors:— o-phenantroline: 9.9 mg in 25 μl DMF (dimethylformamide→add 1 μl (final concentration: 10 mM) • synthetic inhibitors at different concentrations
(§4) Substrate: DQ-gelatin: 1 mg/ml in PBS→add 5 μl to the reaction (reaction volume: 200 μl) (final concentration: […])
(§5) Enzymes: • MMP-7: stock solution: 1 U/μl • MMP-2: stock solution: 0.05 μg/μl • MMP-9: stock solution: 0.05 μg/μl Results & Discussion Generation of the Peptide Library with Lb. helveticus CNCM I-2864 . . .

MMP-9 = MMP-9 (Homo sapiens, UniProt P14780); test: as above; type: biochemical; conditions: flourescein conjugated gelatin; read-out: IC50 for the inhibition of MMP-9
MMP-9, sequence (P14780 94-707, species assumed): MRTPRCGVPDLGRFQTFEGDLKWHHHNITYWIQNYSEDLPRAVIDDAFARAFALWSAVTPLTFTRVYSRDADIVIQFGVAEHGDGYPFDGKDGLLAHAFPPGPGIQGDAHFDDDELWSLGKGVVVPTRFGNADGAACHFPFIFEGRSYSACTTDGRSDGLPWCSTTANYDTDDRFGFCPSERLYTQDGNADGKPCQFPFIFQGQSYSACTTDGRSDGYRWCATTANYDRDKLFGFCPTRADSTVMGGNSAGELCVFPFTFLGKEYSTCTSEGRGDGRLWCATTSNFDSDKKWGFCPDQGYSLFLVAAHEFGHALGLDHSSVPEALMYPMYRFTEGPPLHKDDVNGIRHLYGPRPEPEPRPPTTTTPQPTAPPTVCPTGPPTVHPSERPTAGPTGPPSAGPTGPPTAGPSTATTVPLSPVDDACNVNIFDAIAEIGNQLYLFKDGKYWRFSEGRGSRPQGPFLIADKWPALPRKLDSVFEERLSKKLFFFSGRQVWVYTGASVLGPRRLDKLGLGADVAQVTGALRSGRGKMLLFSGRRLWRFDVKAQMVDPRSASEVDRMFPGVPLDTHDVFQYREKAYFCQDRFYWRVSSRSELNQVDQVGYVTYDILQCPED
Protocol: as §1, §2, §3, §4, §5

MMP-2 = biological target: T3, MMP-2 (Homo sapiens, UniProt P08253); test: as above; type: biochemical; conditions: flourescein conjugated gelatin; read-out: IC50 for the inhibition of MMP-2
T3 sequence (P08253 110-660): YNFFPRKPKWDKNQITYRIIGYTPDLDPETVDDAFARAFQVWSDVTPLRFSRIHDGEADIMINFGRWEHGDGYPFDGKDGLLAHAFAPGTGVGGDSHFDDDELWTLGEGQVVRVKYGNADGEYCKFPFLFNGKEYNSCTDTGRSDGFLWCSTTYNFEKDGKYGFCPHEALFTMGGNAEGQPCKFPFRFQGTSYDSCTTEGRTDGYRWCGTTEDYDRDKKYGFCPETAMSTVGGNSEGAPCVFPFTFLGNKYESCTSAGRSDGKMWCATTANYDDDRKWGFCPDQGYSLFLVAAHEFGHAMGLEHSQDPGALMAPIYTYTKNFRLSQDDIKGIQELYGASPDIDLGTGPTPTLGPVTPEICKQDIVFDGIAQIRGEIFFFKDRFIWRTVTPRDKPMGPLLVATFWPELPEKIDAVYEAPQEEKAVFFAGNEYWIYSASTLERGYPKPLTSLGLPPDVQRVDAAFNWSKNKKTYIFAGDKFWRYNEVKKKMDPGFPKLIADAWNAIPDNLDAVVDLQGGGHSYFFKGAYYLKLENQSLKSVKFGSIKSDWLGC
Protocol: as §1, §2, §3, §4, §5

MMPs = conditions: background statement; cited from earlier work
MMP = test: Matrix metalloproteinase inhibitory test, positive control; type: biochemical; conditions: 10 mM concentration; data not shown
Protocol: as §1, §2, §3

HT-29 cells = test: Proliferation of HT-29 cells with synthetic peptides (percentage of counts); type: cell-based, human; conditions: for antiproliferative activity of synthetic peptides (in words): HT-29 cells
Protocol: Undifferentiated cells (passages 45-78) were maintained in glucose-containing DMEM supplemented with 10% FCS at 37° C. in a 5% CO2/air incubator. Culture medium was changed every two days until the cell monolayers reached 50% confluence. For stimulation assays, HT-29 cells were plated at 1.2*10^4 cells/well in 96-well flat-bottom plates. After incubation for 4 days, the amount of cells present in the wells before incubation with the samples was assessed adding neutral red solution in 4 wells and incubating the plate for 45 min. The HT-29 cells were then washed twice with serum-free media (inclusive the wells with neutral red solution). The wells colored with neutral red remained from now on free of any media.
Synthetic peptides that were tested on HT-29 cell line confirmed their antiproliferative potential.
The same experiment was performed with a shorter version of the former mentioned peptide: ENLLRFFVAPFPEVFG (SEQ ID NO:22) (αS1 33-48).

T1 sequence (P12821 30-1306, species assumed): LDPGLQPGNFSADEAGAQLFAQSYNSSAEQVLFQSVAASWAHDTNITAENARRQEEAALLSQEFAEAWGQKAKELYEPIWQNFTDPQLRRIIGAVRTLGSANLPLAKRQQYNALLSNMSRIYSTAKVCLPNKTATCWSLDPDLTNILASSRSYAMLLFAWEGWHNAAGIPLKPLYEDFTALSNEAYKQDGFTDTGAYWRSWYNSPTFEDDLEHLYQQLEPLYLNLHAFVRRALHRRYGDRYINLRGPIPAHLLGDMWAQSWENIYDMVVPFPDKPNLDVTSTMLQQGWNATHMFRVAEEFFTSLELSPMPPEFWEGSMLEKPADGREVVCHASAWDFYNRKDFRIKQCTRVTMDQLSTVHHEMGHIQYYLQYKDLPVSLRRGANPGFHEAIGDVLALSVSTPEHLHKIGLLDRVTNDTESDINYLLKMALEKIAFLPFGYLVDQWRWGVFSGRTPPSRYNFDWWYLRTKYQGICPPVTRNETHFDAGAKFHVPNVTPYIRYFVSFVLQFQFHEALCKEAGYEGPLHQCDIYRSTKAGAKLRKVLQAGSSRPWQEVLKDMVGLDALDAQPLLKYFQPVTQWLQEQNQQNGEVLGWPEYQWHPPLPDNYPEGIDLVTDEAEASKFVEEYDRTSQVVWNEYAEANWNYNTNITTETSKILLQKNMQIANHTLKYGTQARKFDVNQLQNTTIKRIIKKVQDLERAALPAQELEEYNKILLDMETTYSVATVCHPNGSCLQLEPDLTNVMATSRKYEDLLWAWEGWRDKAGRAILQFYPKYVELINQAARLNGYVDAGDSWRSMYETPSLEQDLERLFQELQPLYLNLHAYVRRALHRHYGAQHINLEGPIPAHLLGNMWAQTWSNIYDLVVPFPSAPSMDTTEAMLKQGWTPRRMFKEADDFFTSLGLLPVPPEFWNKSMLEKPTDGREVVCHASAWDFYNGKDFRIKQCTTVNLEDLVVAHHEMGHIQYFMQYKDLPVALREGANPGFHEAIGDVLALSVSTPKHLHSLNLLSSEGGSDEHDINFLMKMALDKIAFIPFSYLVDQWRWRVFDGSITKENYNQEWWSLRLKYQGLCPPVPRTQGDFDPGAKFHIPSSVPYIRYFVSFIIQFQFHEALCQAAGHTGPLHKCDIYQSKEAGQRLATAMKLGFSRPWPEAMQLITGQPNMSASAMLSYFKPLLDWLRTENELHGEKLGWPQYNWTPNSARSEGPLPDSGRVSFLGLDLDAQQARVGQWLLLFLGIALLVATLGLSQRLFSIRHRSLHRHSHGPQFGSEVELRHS

IC50 (ACE) [µM]	IC50 (MMP-7) [µM]	IC50 (MMP-9) [µM]	IC50 (MMP-2) [µM]	Compound	further results
650	300	400	500	CC(C)[C@H](NC(=O)[C@H](CCC(=O)O)NC(=O)[C@@H]1CCCN1C(=O)[C@H](Cc1ccccc1)NC(=O)[C@@H]1CCCN1C(=O)[C@H](C)NC(=O)[C@@H](NC(=O)[C@@H](N)Cc1ccccc1)C(C)C)C(=O)N[C@@H](Cc1ccccc1)C(=O)NCC(=O)O [FVAPFPEVFG] (H-FVAPFPEVFG-OH; N-terminus and C-terminus assumed)	
				CNC(=O)[C@@H](NC(=O)[C@H](CC(C)C)[C@H](O)C(=O)NO)C(C)(C)C [marimastat]	IC50 (MMPs): micromolar range
55	850	50	275	CC(C)C[C@H](NC(=O)[C@H](CC(C)C)NC(=O)[C@H](CC(N)=O)NC(=O)[C@H](CCC(=O)O)NC(=O)[C@@H](N)CC(N)=O)C(=O)N[C@@H](CCCNC(=N)N)C(=O)N[C@@H](Cc1ccccc1)C(=O)N[C@@H](Cc1ccccc1)C(=O)N[C@H](C(=O)N[C@@H](C)C(=O)N1CCC[C@H]1C(=O)N[C@@H](Cc1ccccc1)C(=O)N1CCC[C@H]1C(=O)N[C@@H](CCC(=O)O)C(=O)N[C@H](C(=O)N[C@@H](Cc1ccccc1)C(=O)NCC(=O)O)C(C)C)C(C)C [NENLLRFFVAPFPEVFG] (H-NENLLRFFVAPFPEVFG-OH; N-terminus and C-terminus assumed)	
				c1cnc2c(c1)ccc1cccnc12 [o-phenantroline]	MMP inhibition (in words) (MMP): complete MMP inhibition
250	1000	150	425	CC(C)C[C@H](NC(=O)[C@H](CC(C)C)NC(=O)[C@H](CC(N)=O)NC(=O)[C@@H](N)CCC(=O)O)C(=O)N[C@@H](CCCNC(=N)N)C(=O)N[C@@H](Cc1ccccc1)C(=O)N[C@@H](Cc1ccccc1)C(=O)N[C@H](C(=O)N[C@@H](C)C(=O)N1CCC[C@H]1C(=O)N[C@@H](Cc1ccccc1)C(=O)N1CCC[C@H]1C(=O)N[C@@H](CCC(=O)O)C(=O)N[C@H](C(=O)N[C@@H](Cc1ccccc1)C(=O)NCC(=O)O)C(C)C)C(C)C [ENLLRFFVAPFPEVFG] (H-ENLLRFFVAPFPEVFG-OH; N-terminus and C-terminus assumed)	antiproliferative activity of synthetic peptides (in words) (HT-29 cells): antiproliferative pattern similar to the one observed for LNENLLRFFVAPFPEVFG
250	275	300	200	CC(C)C[C@H](NC(=O)[C@H](CC(C)C)NC(=O)[C@@H]1CCCN1C(=O)[C@H](CC(C)C)NC(=O)[C@@H]1CCCN1C(=O)[C@H](CC(C)C)NC(=O)[C@H](Cc1c[nH]cn1)NC(=O)[C@H](CC(C)C)NC(=O)[C@H](CC(N)=O)NC(=O)[C@@H](N)CCC(=O)O)C(=O)O [ENLHLPLPLL] (H-ENLHLPLPLL-OH; N-terminus and C-terminus assumed)	
15	1200	600	450	CC(C)C[C@H](NC(=O)[C@H](CC(C)C)NC(=O)[C@@H]1CCCN1C(=O)[C@H](CC(C)C)NC(=O)[C@@H]1CCCN1C(=O)[C@H](CC(C)C)NC(=O)[C@H](Cc1c[nH]cn1)NC(=O)[C@H](CC(C)C)NC(=O)[C@@H](N)CC(N)=O)C(=O)O [NLHLPLPLL] (H-NLHLPLPLL-OH; N-terminus and C-terminus assumed)	
280	300	150	250	CC(C)C[C@H](NC(=O)[C@H](CC(C)C)NC(=O)[C@H](CC(N)=O)NC(=O)[C@H](CCC(=O)O)NC(=O)[C@H](CC(N)=O)NC(=O)[C@@H](N)CC(C)C)C(=O)N[C@@H](CCCNC(=N)N)C(=O)N[C@@H](Cc1ccccc1)C(=O)N[C@@H](Cc1ccccc1)C(=O)N[C@H](C(=O)N[C@@H](C)C(=O)N1CCC[C@H]1C(=O)N[C@@H](Cc1ccccc1)C(=O)N1CCC[C@H]1C(=O)N[C@@H](CCC(=O)O)C(=O)N[C@H](C(=O)N[C@@H](Cc1ccccc1)C(=O)NCC(=O)O)C(C)C)C(C)C [LNENLLRFFVAPFPEVFG] (H-LNENLLRFFVAPFPEVFG-OH; N-terminus and C-terminus assumed)	antiproliferative activity of synthetic peptides (in words) (HT-29 cells): strongly inhibited proliferation; % prolif (percentage of counts with respect to the control) (HT-29 cells; peptide concentration 2 μM): 56%; % prolif (percentage of counts with respect to the control) (HT-29 cells; peptide concentration 4 μM): 44%; % prolif (percentage of counts with respect to the control) (HT-29 cells; peptide concentration 8 μM): 160%; % prolif (percentage of counts with respect to the control) (HT-29 cells; peptide concentration 17 μM): 114%; % prolif (percentage of counts with respect to the control) (HT-29 cells; peptide concentration 33 μM): 131%; % prolif (percentage of counts with respect to the control) (HT-29 cells; peptide concentration 66 μM): 119%; % prolif (percentage of counts with respect to the control) (HT-29 cells; peptide concentration 133 μM): 135%
175	250	300	150	CC(C)C[C@H](NC(=O)[C@H](CC(C)C)NC(=O)[C@@H]1CCCN1C(=O)[C@H](CC(C)C)NC(=O)[C@@H]1CCCN1C(=O)[C@H](CC(C)C)NC(=O)[C@H](Cc1c[nH]cn1)NC(=O)[C@H](CC(C)C)NC(=O)[C@H](CC(N)=O)NC(=O)[C@H](CCC(=O)O)NC(=O)[C@@H](N)C(C)C)C(=O)O [VENLHLPLPLL] (H-VENLHLPLPLL-OH; N-terminus and C-terminus assumed)	

From patent US7597904B2, “Metalloproteinase inhibitory agent” (Nestec S.A., priority 2004, dated 2009)
